This assay has as its target CXCR3 (Macaca fascicularis, UniProt A0A2K5UV19). Nature of the assay: functional cellular assay measuring calcium flux in CXCR3 transfected cells (block of CXCR3/IP-10 interaction). The format is cell-based, Cyno. Summed up:
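Inhibition of IP-10-induced calcium flux at 10 microM final compound, 15 min room-temperature preincubation, with IP-10 at EC80. Cells: CHO stably transfected with cynomolgus CXCR3 plus G-alpha-16, dye-loaded (Ca-4, 2 mM probenecid, HBSS/HEPES pH 7.4) 1 h at 37° C.; fluorescence ex 480/em 540 nm.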

Where [1] appears, read: IP-10 induced intracellular calcium flux, Cyno-CHO cells stably expressing recombinant CXCR3 and G-alpha-16, IP-10 at EC80, read-out: IC50.

Read-outs that look alike come from different tables or passages of the source.

Chain of CXCR3 (A0A2K5UV19 entry or part of it): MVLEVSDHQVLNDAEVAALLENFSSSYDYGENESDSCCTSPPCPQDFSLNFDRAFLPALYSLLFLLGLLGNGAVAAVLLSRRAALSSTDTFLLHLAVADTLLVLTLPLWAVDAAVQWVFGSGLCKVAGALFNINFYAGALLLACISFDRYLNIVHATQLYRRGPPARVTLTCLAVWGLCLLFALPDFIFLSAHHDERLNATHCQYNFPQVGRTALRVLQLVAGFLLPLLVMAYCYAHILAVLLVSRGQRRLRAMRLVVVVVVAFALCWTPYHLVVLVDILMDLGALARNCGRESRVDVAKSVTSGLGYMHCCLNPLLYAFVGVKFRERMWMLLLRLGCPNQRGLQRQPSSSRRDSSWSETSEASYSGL

With `CC1CN(c2ccccc2-c2cnc(N3CCC(S(C)(=O)=O)CC3)nc2)CCN1C(=O)Cn1c(=O)[nH]c2ccccc21` (stereo not drawn) [1-{2-[2-methyl-4-(2-{2-[4-(methylsulfonyl)piperidin-1-yl]pyrimidin-5-yl}phenyl)piperazin-1-yl]-2-oxoethyl}-1,3-dihydro-2H-benzimidazol-2-one], under setting [1], the IC50 worked out at 11 nM.

`CC1CN(c2ccccc2-c2cnc(N3CCC(S(C)(=O)=O)CC3)nc2)CCN1C(=O)CN1CCCCC1=O` (stereo not drawn) [1-{2-[2-methyl-4-(2-{2-[4-(methylsulfonyl)piperidin-1-yl]pyrimidin-5-yl}phenyl)piperazin-1-yl]-2-oxoethyl}piperidin-2-one]: the IC50 under setting [1] worked out at 34 nM. For `CC1CN(c2ccc(F)cc2-c2cnc(N3CCC(S(C)(=O)=O)CC3)nc2)CCN1C(=O)Cn1c(=O)[nH]c2ccccc21` (stereo not drawn) [1-{2-[4-(4-fluoro-2-{2-[4-(methylsulfonyl)piperidin-1-yl]pyrimidin-5-yl}phenyl)-2-methylpiperazin-1-yl]-2-oxoethyl}-1,3-dihydro-2H-benzimidazol-2-one], the IC50 under setting [1] was determined as 9 nM. Turning to `CC1CN(c2ccc(F)cc2-c2cnc(N3CCC(S(C)(=O)=O)CC3)nc2)CCN1C(=O)CN1CCCCC1=O` (stereo not drawn) [1-{2-[4-(4-fluoro-2-{2-[4-(methylsulfonyl)piperidin-1-yl]pyrimidin-5-yl}phenyl)-2-methylpiperazin-1-yl]-2-oxoethyl}piperidin-2-one], the IC50 under setting [1] was 14 nM.

As to `CS(=O)(=O)C1CCN(c2ncc(-c3cc(F)ccc3N3CCN(C(=O)Cn4c(=O)[nH]c5ccccc54)CC3)cn2)CC1` [1-{2-[4-(4-fluoro-2-{2-[4-(methylsulfonyl)piperidin-1-yl]pyrimidin-5-yl}phenyl)piperazin-1-yl]-2-oxoethyl}-1,3-dihydro-2H-benzimidazol-2-one], under setting [1], the IC50 was found to be 7 nM. On to `CS(=O)(=O)C1CCN(c2ncc(-c3cc(F)ccc3N3CCN(C(=O)CN4CCCCC4=O)CC3)cn2)CC1` [1-{2-[4-(4-fluoro-2-{2-[4-(methylsulfonyl)piperidin-1-yl]pyrimidin-5-yl}phenyl)piperazin-1-yl]-2-oxoethyl}piperidin-2-one], for which the IC50 under setting [1] stood at 15 nM.

Regarding `CC1CN(c2ccc(C(F)(F)F)cc2-c2cnc(N3CCC(S(C)(=O)=O)CC3)nc2)CCN1C(=O)Cn1ccc2ccncc21` (stereo not drawn) [1-{2-methyl-4-[2-{2-[4-(methylsulfonyl)piperidin-1-yl]pyrimidin-5-yl}-4-(trifluoromethyl)phenyl]piperazin-1-yl}-2-(1H-pyrrolo[2,3-c]pyridin-1-yl)ethanone], under setting [1], the half-maximal inhibitory concentration (IC50) came out at 7 nM. Take `CC1CN(C(=O)Cn2ccc3cccnc32)CCN1c1ccccc1-c1cnc(N2CCOCC2)nc1` (stereo not drawn) [1-{3-Methyl-4-[2-(2-morpholin-4-yl-pyrimidin-5-yl)-phenyl]-piperazin-1-yl}-2-pyrrolo[2,3-b]pyridin-1-yl-ethanone]: the IC50 under setting [1] stood at 11 nM.

In the case of `COc1ncc(-c2ccccc2N2CC3CCC(C2)N3C(=O)Cn2ccc3cccnc32)cn1` [1-{3-[2-(2-Methoxy-pyrimidin-5-yl)-phenyl]-3,8-diaza-bicyclo[3.2.1]oct-8-yl}-2-pyrrolo[2,3-b]pyridin-1-yl-ethanone], the IC50 stood at 7 nM.

For `Cc1cc(C)n(CC(=O)N2CCN(c3ccccc3-c3cnc(N(C)C)nc3)CC2)n1` [1-{4-[2-(2-Dimethylamino-pyrimidin-5-yl)-phenyl]-piperazin-1-yl}-2-(3,5-dimethyl-pyrazol-1-yl)-ethanone], the IC50 under setting [1] stood at 7 nM. Turning to `CN(C)c1ncc(-c2ccccc2N2CCN(C(=O)Cn3ccc4cccnc43)CC2)cn1` [1-{4-[2-(2-Dimethylamino-pyrimidin-5-yl)-phenyl]-piperazin-1-yl}-2-pyrrolo[2,3-b]pyridin-1-yl-ethanone], the IC50 under setting [1] was found to be 6 nM. `CCNc1ncc(-c2ccccc2N2CCN(C(=O)Cn3ccc4cccnc43)CC2)cn1` [1-{4-[2-(2-Ethylamino-pyrimidin-5-yl)-phenyl]-piperazin-1-yl}-2-pyrrolo[2,3-b]pyridin-1-yl-ethanone]: the IC50 under setting [1] amounted to 9 nM. Consider `CS(=O)(=O)c1ncc(-c2cc(C(F)(F)F)ccc2N2CCN(C(=O)Cn3ccc4cccnc43)CC2)cn1` [1-{4-[2-(2-Methanesulfonyl-pyrimidin-5-yl)-4-trifluoromethyl-phenyl]-piperazin-1-yl}-2-pyrrolo[2,3-b]pyridin-1-yl-ethanone], for which, under setting [1], the IC50 came to 13 nM. Regarding `CS(=O)(=O)c1ncc(-c2ccccc2N2CCN(C(=O)Cn3ccc4cccnc43)CC2)cn1` [1-{4-[2-(2-Methanesulfonyl-pyrimidin-5-yl)-phenyl]-piperazin-1-yl}-2-pyrrolo[2,3-b]pyridin-1-yl-ethanone], the IC50 under setting [1] stood at 115 nM.

As for `COc1cc(-c2ccccc2N2CCN(C(=O)Cn3ccc4cccnc43)CC2)ccn1` [1-{4-[2-(2-Methoxy-pyridin-4-yl)-phenyl]-piperazin-1-yl}-2-pyrrolo[2,3-b]pyridin-1-yl-ethanone], the concentration for half-maximal inhibition (IC50) under setting [1] is 24 nM.

For the compound `COc1ncc(-c2cc(C(F)(F)F)ccc2N2CCN(C(=O)Cn3ccc4cccnc43)CC2)cn1` [1-{4-[2-(2-Methoxy-pyrimidin-5-yl)-4-trifluoromethyl-phenyl]-piperazin-1-yl}-2-pyrrolo[2,3-b]pyridin-1-yl-ethanone], the IC50 under setting [1] was 8 nM.

On to `COc1ncc(-c2ccccc2N2CCN(C(=O)Cn3ccc4cccnc43)CC2)cn1` [1-{4-[2-(2-Methoxy-pyrimidin-5-yl)-phenyl]-piperazin-1-yl}-2-pyrrolo[2,3-b]pyridin-1-yl-ethanone], for which, under setting [1], the IC50 was 6 nM.

On to `COc1ncc(-c2ccccc2N2CCN(C(=O)Cn3ccc4ccncc43)CC2)cn1` [1-{4-[2-(2-Methoxy-pyrimidin-5-yl)-phenyl]-piperazin-1-yl}-2-pyrrolo[2,3-c]pyridin-1-yl-ethanone], for which the IC50 under setting [1] is 9 nM. Still for that read-out and setting: to `CNc1ncc(-c2cc(C(F)(F)F)ccc2N2CCN(C(=O)Cn3ccc4cccnc43)CC2)cn1` [1-{4-[2-(2-Methylamino-pyrimidin-5-yl)-4-trifluoromethyl-phenyl]-piperazin-1-yl}-2-pyrrolo[2,3-b]pyridin-1-yl-ethanone] belongs 5 nM; to `CNc1ncc(-c2ccccc2N2CCN(C(=O)Cn3ccc4cccnc43)CC2)cn1` [1-{4-[2-(2-Methylamino-pyrimidin-5-yl)-phenyl]-piperazin-1-yl}-2-pyrrolo[2,3-b]pyridin-1-yl-ethanone], 7 nM.

As to `CSc1ncc(-c2cc(C(F)(F)F)ccc2N2CCN(C(=O)Cn3ccc4cccnc43)CC2)cn1` [1-{4-[2-(2-Methylsulfanyl-pyrimidin-5-yl)-4-trifluoromethyl-phenyl]-piperazin-1-yl}-2-pyrrolo[2,3-b]pyridin-1-yl-ethanone], the half-inhibitory concentration (IC50) under setting [1] worked out at 9 nM. On to `CSc1ncc(-c2ccccc2N2CCN(C(=O)Cn3ccc4cccnc43)CC2)cn1` [1-{4-[2-(2-Methylsulfanyl-pyrimidin-5-yl)-phenyl]-piperazin-1-yl}-2-pyrrolo[2,3-b]pyridin-1-yl-ethanone], for which the IC50 under setting [1] turned out to be 4 nM.

`O=C(Cn1ccc2cccnc21)N1CCN(c2ccccc2-c2ccnc(N3CCOCC3)c2)CC1` [1-{4-[2-(2-Morpholin-4-yl-pyridin-4-yl)-phenyl]-piperazin-1-yl}-2-pyrrolo[2,3-b]pyridin-1-yl-ethanone]: the IC50 under setting [1] turned out to be 16 nM. `O=C(Cn1ccc2cccnc21)N1CCN(c2ccc(C(F)(F)F)cc2-c2cnc(N3CCOCC3)nc2)CC1` [1-{4-[2-(2-Morpholin-4-yl-pyrimidin-5-yl)-4-trifluoromethyl-phenyl]-piperazin-1-yl}-2-pyrrolo[2,3-b]pyridin-1-yl-ethanone]: the IC50 under setting [1] was 15 nM. On to `O=C(Cn1ccc2cccnc21)N1CC=C(c2ccccc2-c2cnc(N3CCOCC3)nc2)CC1` [1-{4-[2-(2-Morpholin-4-yl-pyrimidin-5-yl)-phenyl]-3,6-dihydro-2H-pyridin-1-yl}-2-pyrrolo[2,3-b]pyridin-1-yl-ethanone], for which the IC50 under setting [1] was 20 nM. Same read-out and setting: to `O=C(CNc1ccncc1)N1CCN(c2ccccc2-c2cnc(N3CCOCC3)nc2)CC1` [1-{4-[2-(2-Morpholin-4-yl-pyrimidin-5-yl)-phenyl]-piperazin-1-yl}-2-(pyridin-4-ylamino)-ethanone] belongs 27 nM; to `O=C(CNc1nccs1)N1CCN(c2ccccc2-c2cnc(N3CCOCC3)nc2)CC1` [1-{4-[2-(2-Morpholin-4-yl-pyrimidin-5-yl)-phenyl]-piperazin-1-yl}-2-(thiazol-2-ylamino)-ethanone], 35 nM. With `O=C(Cn1ccc2cccnc21)N1CCN(c2ccccc2-c2cnc(N3CCOCC3)nc2)CC1` [1-{4-[2-(2-Morpholin-4-yl-pyrimidin-5-yl)-phenyl]-piperazin-1-yl}-2-pyrrolo[2,3-b]pyridin-1-yl-ethanone], under setting [1], the concentration for half-maximal inhibition (IC50) worked out at 6 nM. Take `O=C(Cn1ccc2cccnc21)N1CCC(c2ccccc2-c2cnc(N3CCOCC3)nc2)CC1` [1-{4-[2-(2-Morpholin-4-yl-pyrimidin-5-yl)-phenyl]-piperidin-1-yl}-2-pyrrolo[2,3-b]pyridin-1-yl-ethanone]: under setting [1], the IC50 was found to be 11 nM. Consider `O=C(Cn1ccc2cccnc21)N1CCN(c2ccccc2-c2cnc(N3CCCCC3)nc2)CC1` [1-{4-[2-(2-Piperidin-1-yl-pyrimidin-5-yl)-phenyl]-piperazin-1-yl}-2-pyrrolo[2,3-b]pyridin-1-yl-ethanone], for which the IC50 under setting [1] was determined as 11 nM.

`O=C(Cn1ccc2cccnc21)N1CCN(c2ccccc2-c2cnc(N3CCCC3)nc2)CC1` [1-{4-[2-(2-Pyrrolidin-1-yl-pyrimidin-5-yl)-phenyl]-piperazin-1-yl}-2-pyrrolo[2,3-b]pyridin-1-yl-ethanone]: the IC50 under setting [1] came to 9 nM. Still for that read-out and setting: to `O=C(Cn1ccc2cccnc21)N1CCN(c2ccccc2-c2cnc(N3CCCOCC3)nc2)CC1` [1-{4-[2-(2-[1,4]Oxazepan-4-yl-pyrimidin-5-yl)-phenyl]-piperazin-1-yl}-2-pyrrolo[2,3-b]pyridin-1-yl-ethanone] belongs 9 nM. `O=C(Cn1ccc2cccnc21)N1CCN(c2ccccc2-c2ccc(Cl)nc2)CC1` [1-{4-[2-(6-Chloro-pyridin-3-yl)-phenyl]-piperazin-1-yl}-2-pyrrolo[2,3-b]pyridin-1-yl-ethanone]: the 50% inhibitory concentration (IC50) under setting [1] came out at 31 nM.

Source of the values: patent publication US8450317B2, “CXCR3 receptor antagonists” (Boehringer Ingelheim International GmbH, priority 2009, dated 2013).
